Read-outs that look alike come from different tables or passages of the source.
Experiments:
[1] = Patient with chronically elevated liver enzymes and bilirubin treated with Praluent brand alirocumab; assay type: in vivo, human; conditions: middle age person
From the text: A middle age person had chronically elevated AST, ALT and gamma glutamyl transferase and elevated bilirubin levels and clay colored stools. There was no viral hepatitis. […] The patient also felt less fatigued.

CD81 [2] = experiment: CD81 expression in vivo in PCSK9-/- mice after alirocumab; conditions: after administering alirocumab
Method: (§1) CD81 expression in vivo in PCSK9−/−mice and in hyperlipidemic mice expressing human PCSK9 with reduced LDLR expression (PCSK9hum/hum/LDLR+/−) were tested after administering alirocumab; no changes in total CD81 levels were observed. […] Based on conflicting data, the relevant scientific literature is currently considered inadequate to conclusively address the potential impact of alirocumab on HCV infectivity. It should be noted that increased cell-surface LDLR has also been postulated to modulate HCV infectivity; statins, like alirocumab, increase cell-surface LDLR.

CD81 [3] = experiment: CD81 expression in vivo in hyperlipidemic PCSK9hum/hum/LDLR+/- mice after alirocumab; conditions: hyperlipidemic mice expressing human PCSK9 with reduced LDLR expression (PCSK9hum/hum/LDLR+/-), after administering alirocumab
Method: as §1

HCV = HCV infectivity and replication kinetics in vitro with extracellular PCSK9 in presence/absence of alirocumab; assay type: cell-based; conditions: addition of extracellular PCSK9 in the presence/absence of alirocumab
[4] = monkeys, 3-month, co-administered with atorvastatin at doses producing modest ALT increases; cited from earlier work
[5] = humans administered alirocumab; cited from earlier work
[6] = cited from earlier work
[7] = monkey, cited from earlier work
[8] = monkey, in vivo; cited from earlier work
[9] = monkey, in vivo; cited from earlier work; remark: listed apart in the source
[10] = rat, in vivo; cited from earlier work
[11] = rat, in vivo; cited from earlier work; remark: listed apart in the source
[12] = monkey, in vivo; cited from earlier work; remark: listed apart in the source
[13] = chronically elevated, no viral hepatitis, after treatment for 1-2 months

Substance: alirocumab
- ALT [1, 13]: returned to normal
- AST [1, 13]: returned to normal
- gamma glutamyl transferase [1, 13]: returned to normal
- bilirubin levels ([1]; elevated, after treatment for 1-2 months): returned to normal
- fatigue ([1]; after treatment): less fatigued
- clay colored stools ([1]; after treatment for 1-2 months): became normal
- total CD81 levels (CD81 [2]): no changes
- total CD81 levels (CD81 [3]): no changes
- effects on HCV infectivity (HCV): No effects
- effects on HCV replication kinetics (HCV): No effects
- liver toxicity [4]: not exacerbated
- HDL-C [5]: not reduced
- sinusoidal cell defects in the liver ([6]; rat, in vivo): sinusoidal cell defects were observed
- HDL ([6]; rats administered alirocumab): low HDL
- sinusoidal cell defects in the liver (this phenomenon) ([7]; in vivo): not observed
- HDL-C levels [7]: greatly reduced
- effects on T-cell dependent antibody response [8]: no effects
- effects on cytotoxic T-cell activity [8]: no effects
- effects on immune cell populations [8]: no effects
- effects on natural killer cell activity [8]: no effects
- imbalances for infections [9]: no imbalances
- imbalances for infections [10]: no imbalances
- alirocumab-related effects on peripheral neurons [11]: No significant alirocumab-related effects
- alirocumab-related effects on peripheral neurons [12]: No significant alirocumab-related effects

— US20200017603A1, “NOVEL USES OF PCSK9 INHIBITORS AND RELATED MEDICATIONS” (BHL PATENT HOLDINGS, LLC, priority 2016, published 2020)
